One molecule from ChEMBL document CHEMBL4428075, “New antiproliferative 7-(4-(N-substituted carbamoylmethyl)piperazin-1-yl) derivatives of ciprofloxacin induce cell cycle arrest at G2/M phase” (Bioorg Med Chem, 2016) can be followed below.

For series [1], the system named is WI-38. In words: Downregulation of cdc2 expression in human WI38 cells at 5 to 25 uM after 24 hrs by Western blot analysis. The following applies: wi-38, 24 h. Format: ADME, cell-based. Background: A western blot detects proteins with antibodies after separation by electrophoresis.
Series [2] has as its system A549. In words: Induction of cell cycle arrest in human A549 cells assessed as accumulation at G2/M phase at 10 uM after 24 hrs by FITC-labeled anti-BrdU antibody/7AAD staining based FACS calibur flow cytometric analysis (reference value: 12.61 %). Format: functional.
The subject of series [3] is A549. Description: Induction of cell cycle arrest in human A549 cells assessed as accumulation at S phase at 25 uM after 24 hrs by FITC-labeled anti-BrdU antibody/7AAD staining based FACS calibur flow cytometric analysis (reference value: 20.9 %). Format: functional. On the technique in general: A flow cytometer gives signals particle by particle.
Series [4] relates to A549. Description: Induction of cell cycle arrest in human A549 cells assessed as accumulation at G2/M phase at 25 uM after 24 hrs by FITC-labeled anti-BrdU antibody/7AAD staining based FACS calibur flow cytometric analysis (reference value: 12.61 %). Format: functional.
For series [5], the system named is A549. Description: Induction of cell cycle arrest in human A549 cells assessed as accumulation at G1 phase at 5 uM after 24 hrs by FITC-labeled anti-BrdU antibody/7AAD staining based FACS calibur flow cytometric analysis (reference value: 65.9 %). Format: functional.
Series [6] relates to A549. Description: Induction of cell cycle arrest in human A549 cells assessed as accumulation at G2/M phase at 15 uM after 24 hrs by FITC-labeled anti-BrdU antibody/7AAD staining based FACS calibur flow cytometric analysis (reference value: 12.61 %). The format is functional.
In series [7] the test system is WI-38. In words: Downregulation of cyclinB1 expression in human WI38 cells at 5 to 25 uM after 24 hrs by Western blot analysis. Format: ADME, cell-based. The following applies: wi-38, 24 h.
Series [8] concerns A549. In words: Downregulation of cdc2 expression in human A549 cells after 24 hrs by Western blot analysis. Format: functional, cell-based.
For series [9], the system named is A549. In words: Induction of cell cycle arrest in human A549 cells assessed as accumulation at G1 phase at 25 uM after 24 hrs by FITC-labeled anti-BrdU antibody/7AAD staining based FACS calibur flow cytometric analysis (reference value: 65.9 %). The format is functional.
The subject of series [10] is A549. Description: Induction of p53 expression in human A549 cells at 25 uM after 24 hrs in presence of PFTalpha by Western blot analysis. Format: functional, cell-based.
Series [11] concerns A549. In words: Induction of cell cycle arrest in human A549 cells assessed as accumulation at S phase at 15 uM after 24 hrs by FITC-labeled anti-BrdU antibody/7AAD staining based FACS calibur flow cytometric analysis (reference value: 20.9 %). The format is functional.
For series [12], the system named is A549. In words: Induction of cell cycle arrest in human A549 cells assessed accumulation at G2/M phase at 25 uM after 24 hrs by FITC-labeled anti-BrdU antibody/7AAD staining based FACS calibur flow cytometric analysis (reference value: 12%). The format is functional.
In series [13] the test system is A549. In words: Induction of cell cycle arrest in human A549 cells assessed as accumulation at G1 phase at 15 uM after 24 hrs by FITC-labeled anti-BrdU antibody/7AAD staining based FACS calibur flow cytometric analysis (reference value: 65.9 %). The format is functional.
Series [14] relates to A549. In words: Induction of cell cycle arrest in human A549 cells assessed as accumulation at G1 phase at 10 uM after 24 hrs by FITC-labeled anti-BrdU antibody/7AAD staining based FACS calibur flow cytometric analysis (reference value: 65.9 %). Format: functional.

Each structure is given as a SMILES string. Activity calls are given as the source filed them. The rule behind the calls is not given here.

Regarding `O=C(CN1CCN(c2cc3c(cc2F)c(=O)c(C(=O)O)cn3C2CC2)CC1)Nc1ccc(Cl)cc1`, the Activity entry in the series on WI-38 [1] is given as “Non-Toxic”; in the series with A549 [2], 22.6%; with A549 [3], 10.5%; with A549 [4], 64%; in the series on A549 [5], 68.9%; with A549 [6] it was 32.6%. Besides, the Activity result with WI-38 [7] is “Non-Toxic”; in the series on A549 [8], “Dose-dependent effect”; in the series on A549 [9] it was 24.8%; in the series on A549 [11], 19.8%; in the series on A549 [12] it was 63.9%; in the series on A549 [13], 46%. In addition, the Activity in the series on A549 [14] came to 58.5%. Besides, the outcome with A549 [10] was inactive.
